Article doi:10.1101/2024.08.19.608619, “Discovery of potent SARS-CoV-2 nsp3 macrodomain inhibitors uncovers lack of translation to cellular antiviral response” (bioRxiv, 2024)
Read-outs that look alike come from different tables or passages of the source.

What was measured:
Test in all cases: biochemical
Design in all cases: In vitro kinase panel profiling, per cent remaining kinase activity at 10 uM
CK1γ1(h) = biological target: T1, CK1γ1(h) (Homo sapiens, UniProt Q9HCP0); conditions: atp_concentration=15, read-out: % of control remaining
T1 construct: gene CSNK1G1
Source text: (§1) We derisk potential for off-target activity by profiling the compound in a CEREP panel, a standard secondary pharmacology assessment, as well as a kinase panel to derisk a potential hinge-binding motif in our leads, and a PARP panel to derisk activity against human […]. Reassuringly, the compounds are selective, with the only off-targets being moderate human CHRM2 and KOR receptors activity associated with ASAP-0011198.

AMPKα1(h) = biological target: T2, AMPKα1(h) (Homo sapiens, UniProt Q13131); conditions: atp_concentration=45, read-out: % of control remaining
T2 construct: gene PRKAA1
Source text: as §1

IRAK4(h) = biological target: T3, IRAK4(h) (Homo sapiens, UniProt Q9NWZ3); conditions: atp_concentration=200, read-out: % of control remaining
T3 sequence (Q9NWZ3 1-460): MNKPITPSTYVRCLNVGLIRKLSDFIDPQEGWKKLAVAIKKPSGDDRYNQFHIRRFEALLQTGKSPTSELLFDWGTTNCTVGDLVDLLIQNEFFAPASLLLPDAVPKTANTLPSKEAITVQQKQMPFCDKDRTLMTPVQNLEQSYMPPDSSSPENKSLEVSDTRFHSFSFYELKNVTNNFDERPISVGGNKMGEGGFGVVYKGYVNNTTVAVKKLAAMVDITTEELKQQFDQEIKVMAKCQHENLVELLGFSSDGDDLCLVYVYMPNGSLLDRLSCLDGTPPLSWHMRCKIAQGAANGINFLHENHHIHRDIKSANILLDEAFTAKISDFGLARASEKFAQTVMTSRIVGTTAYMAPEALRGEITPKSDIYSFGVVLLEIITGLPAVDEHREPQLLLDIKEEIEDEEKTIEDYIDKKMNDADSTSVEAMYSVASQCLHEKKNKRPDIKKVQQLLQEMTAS
Source text: as §1

IKKα(h) = biological target: T4, IKKα(h) (Homo sapiens, UniProt O15111); conditions: atp_concentration=10, read-out: % of control remaining
T4 construct: gene CHUK
T4 sequence (O15111 1-745): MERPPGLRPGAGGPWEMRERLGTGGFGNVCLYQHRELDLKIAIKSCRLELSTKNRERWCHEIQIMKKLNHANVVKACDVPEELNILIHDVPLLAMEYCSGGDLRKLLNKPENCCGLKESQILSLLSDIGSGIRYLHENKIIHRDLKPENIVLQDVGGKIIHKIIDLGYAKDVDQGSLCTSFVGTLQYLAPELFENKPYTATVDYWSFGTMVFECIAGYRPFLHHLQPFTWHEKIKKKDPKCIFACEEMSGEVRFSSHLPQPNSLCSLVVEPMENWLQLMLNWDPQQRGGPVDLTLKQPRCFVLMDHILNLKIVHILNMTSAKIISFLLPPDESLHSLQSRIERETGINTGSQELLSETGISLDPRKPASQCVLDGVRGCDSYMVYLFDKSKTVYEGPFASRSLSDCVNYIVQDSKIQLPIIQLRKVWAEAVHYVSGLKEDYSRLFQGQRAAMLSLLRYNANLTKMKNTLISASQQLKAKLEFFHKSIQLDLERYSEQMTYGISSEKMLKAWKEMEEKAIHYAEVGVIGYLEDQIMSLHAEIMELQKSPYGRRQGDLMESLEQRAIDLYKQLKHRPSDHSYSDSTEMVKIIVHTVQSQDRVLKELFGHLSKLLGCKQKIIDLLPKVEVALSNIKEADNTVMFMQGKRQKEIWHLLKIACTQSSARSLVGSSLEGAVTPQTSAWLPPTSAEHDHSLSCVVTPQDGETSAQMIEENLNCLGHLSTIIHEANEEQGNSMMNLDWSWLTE
Source text: as §1

JAK2(h) = JAK2(h) (Homo sapiens, UniProt O60674); conditions: atp_concentration=45, read-out: % of control remaining
JAK2(h), sequence (O60674 whole entry): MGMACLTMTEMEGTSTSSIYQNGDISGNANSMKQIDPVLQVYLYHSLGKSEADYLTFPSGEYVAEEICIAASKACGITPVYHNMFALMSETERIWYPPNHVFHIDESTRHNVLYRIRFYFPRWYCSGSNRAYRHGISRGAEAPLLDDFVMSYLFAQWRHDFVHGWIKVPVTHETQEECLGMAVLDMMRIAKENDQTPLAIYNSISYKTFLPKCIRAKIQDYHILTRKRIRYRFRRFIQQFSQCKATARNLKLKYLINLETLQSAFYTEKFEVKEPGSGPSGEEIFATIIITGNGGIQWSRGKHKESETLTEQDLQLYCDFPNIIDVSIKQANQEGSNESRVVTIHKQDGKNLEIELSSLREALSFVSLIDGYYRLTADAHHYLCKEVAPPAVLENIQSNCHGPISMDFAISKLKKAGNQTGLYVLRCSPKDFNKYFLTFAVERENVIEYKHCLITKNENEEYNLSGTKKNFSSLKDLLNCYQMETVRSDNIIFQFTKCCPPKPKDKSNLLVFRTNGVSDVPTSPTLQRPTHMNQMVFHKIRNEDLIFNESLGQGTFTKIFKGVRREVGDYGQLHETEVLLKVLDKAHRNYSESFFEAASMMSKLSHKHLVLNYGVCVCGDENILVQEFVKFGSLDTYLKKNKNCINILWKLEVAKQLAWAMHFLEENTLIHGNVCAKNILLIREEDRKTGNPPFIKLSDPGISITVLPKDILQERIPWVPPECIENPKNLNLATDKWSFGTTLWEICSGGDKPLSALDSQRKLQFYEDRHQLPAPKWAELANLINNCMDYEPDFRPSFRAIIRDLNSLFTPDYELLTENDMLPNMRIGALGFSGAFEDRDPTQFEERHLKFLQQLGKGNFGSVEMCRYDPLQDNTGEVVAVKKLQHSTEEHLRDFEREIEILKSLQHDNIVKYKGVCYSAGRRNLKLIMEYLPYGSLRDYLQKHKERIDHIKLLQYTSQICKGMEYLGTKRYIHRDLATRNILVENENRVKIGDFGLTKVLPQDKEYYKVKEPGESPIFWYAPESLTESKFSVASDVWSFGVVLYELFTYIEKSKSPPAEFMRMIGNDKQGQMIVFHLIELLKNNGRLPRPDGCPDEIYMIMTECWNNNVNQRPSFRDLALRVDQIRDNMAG
Source text: as §1

PAK2(h) = PAK2(h) (Homo sapiens, UniProt Q13177); conditions: atp_concentration=90, read-out: % of control remaining
Source text: as §1

[1] = biological target: T5, PI3 Kinase (p110δ/p85α)(h) (Homo sapiens, UniProt O00329); conditions: atp_concentration=200, read-out: % of control remaining
T5 construct: gene PIK3CD
Source text: as §1

mTOR(h) = mTOR(h) (Homo sapiens, UniProt P42345); conditions: atp_concentration=70, read-out: % of control remaining
Source text: as §1

Rsk1(h) = biological target: T6, Rsk1(h) (Homo sapiens, UniProt Q15418); conditions: atp_concentration=45, read-out: % of control remaining
T6 construct: gene RPS6KA1
T6 sequence (Q15418 whole entry): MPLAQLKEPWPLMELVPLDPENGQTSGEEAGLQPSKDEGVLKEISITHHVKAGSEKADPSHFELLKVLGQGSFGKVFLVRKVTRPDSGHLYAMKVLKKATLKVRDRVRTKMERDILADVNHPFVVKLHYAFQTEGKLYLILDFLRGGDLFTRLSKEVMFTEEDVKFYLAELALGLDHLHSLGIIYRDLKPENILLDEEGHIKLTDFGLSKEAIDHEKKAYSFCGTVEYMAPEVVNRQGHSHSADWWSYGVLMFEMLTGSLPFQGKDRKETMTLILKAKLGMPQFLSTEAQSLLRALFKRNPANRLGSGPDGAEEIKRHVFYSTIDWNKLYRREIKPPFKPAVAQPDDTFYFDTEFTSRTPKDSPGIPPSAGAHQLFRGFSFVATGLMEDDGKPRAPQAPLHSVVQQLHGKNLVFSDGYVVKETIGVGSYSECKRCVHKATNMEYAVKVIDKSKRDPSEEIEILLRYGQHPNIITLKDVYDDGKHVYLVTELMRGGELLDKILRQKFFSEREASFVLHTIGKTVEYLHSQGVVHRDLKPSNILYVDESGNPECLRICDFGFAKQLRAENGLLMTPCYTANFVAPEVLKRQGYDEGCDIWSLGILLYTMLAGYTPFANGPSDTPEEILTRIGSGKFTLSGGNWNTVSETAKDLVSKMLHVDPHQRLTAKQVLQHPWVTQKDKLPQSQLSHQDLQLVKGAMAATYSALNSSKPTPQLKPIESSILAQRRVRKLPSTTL
Source text: as §1

MLK1(h) = biological target: T7, MLK1(h) (Homo sapiens, UniProt P80192); conditions: atp_concentration=45, read-out: % of control remaining
T7 construct: gene MAP3K9
T7 sequence (P80192 whole entry): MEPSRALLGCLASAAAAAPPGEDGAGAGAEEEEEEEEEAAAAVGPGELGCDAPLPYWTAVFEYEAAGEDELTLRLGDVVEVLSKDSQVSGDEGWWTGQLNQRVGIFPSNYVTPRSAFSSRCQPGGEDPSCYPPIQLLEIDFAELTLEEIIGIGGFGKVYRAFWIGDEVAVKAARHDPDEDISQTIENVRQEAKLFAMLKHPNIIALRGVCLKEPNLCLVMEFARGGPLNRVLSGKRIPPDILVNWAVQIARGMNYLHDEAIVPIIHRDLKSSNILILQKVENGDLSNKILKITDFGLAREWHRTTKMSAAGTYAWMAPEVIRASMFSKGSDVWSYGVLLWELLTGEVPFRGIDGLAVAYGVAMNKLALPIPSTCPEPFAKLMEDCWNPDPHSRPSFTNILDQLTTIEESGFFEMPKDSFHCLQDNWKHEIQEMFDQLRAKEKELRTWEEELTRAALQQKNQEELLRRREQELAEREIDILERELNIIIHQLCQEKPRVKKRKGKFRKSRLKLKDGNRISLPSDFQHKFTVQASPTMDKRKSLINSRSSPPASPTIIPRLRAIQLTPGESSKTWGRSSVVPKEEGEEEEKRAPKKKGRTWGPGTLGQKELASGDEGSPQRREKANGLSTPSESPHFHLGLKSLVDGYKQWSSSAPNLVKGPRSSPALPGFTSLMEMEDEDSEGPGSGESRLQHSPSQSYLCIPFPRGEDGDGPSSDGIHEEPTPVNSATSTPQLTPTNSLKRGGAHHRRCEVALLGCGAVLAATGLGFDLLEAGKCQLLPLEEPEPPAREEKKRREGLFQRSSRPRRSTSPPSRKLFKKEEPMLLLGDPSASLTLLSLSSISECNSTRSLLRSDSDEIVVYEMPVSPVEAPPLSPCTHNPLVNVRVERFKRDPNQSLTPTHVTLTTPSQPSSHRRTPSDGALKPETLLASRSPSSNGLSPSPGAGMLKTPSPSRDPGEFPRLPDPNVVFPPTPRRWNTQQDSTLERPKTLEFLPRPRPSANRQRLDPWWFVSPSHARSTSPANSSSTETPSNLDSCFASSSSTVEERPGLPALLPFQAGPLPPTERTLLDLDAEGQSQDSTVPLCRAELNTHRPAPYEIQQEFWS
Source text: as §1

IGF-1R(h) = biological target: T8, IGF-1R(h) (Homo sapiens, UniProt P08069); conditions: atp_concentration=200, read-out: % of control remaining
T8 construct: gene IGF1R
T8 sequence (P08069 whole entry): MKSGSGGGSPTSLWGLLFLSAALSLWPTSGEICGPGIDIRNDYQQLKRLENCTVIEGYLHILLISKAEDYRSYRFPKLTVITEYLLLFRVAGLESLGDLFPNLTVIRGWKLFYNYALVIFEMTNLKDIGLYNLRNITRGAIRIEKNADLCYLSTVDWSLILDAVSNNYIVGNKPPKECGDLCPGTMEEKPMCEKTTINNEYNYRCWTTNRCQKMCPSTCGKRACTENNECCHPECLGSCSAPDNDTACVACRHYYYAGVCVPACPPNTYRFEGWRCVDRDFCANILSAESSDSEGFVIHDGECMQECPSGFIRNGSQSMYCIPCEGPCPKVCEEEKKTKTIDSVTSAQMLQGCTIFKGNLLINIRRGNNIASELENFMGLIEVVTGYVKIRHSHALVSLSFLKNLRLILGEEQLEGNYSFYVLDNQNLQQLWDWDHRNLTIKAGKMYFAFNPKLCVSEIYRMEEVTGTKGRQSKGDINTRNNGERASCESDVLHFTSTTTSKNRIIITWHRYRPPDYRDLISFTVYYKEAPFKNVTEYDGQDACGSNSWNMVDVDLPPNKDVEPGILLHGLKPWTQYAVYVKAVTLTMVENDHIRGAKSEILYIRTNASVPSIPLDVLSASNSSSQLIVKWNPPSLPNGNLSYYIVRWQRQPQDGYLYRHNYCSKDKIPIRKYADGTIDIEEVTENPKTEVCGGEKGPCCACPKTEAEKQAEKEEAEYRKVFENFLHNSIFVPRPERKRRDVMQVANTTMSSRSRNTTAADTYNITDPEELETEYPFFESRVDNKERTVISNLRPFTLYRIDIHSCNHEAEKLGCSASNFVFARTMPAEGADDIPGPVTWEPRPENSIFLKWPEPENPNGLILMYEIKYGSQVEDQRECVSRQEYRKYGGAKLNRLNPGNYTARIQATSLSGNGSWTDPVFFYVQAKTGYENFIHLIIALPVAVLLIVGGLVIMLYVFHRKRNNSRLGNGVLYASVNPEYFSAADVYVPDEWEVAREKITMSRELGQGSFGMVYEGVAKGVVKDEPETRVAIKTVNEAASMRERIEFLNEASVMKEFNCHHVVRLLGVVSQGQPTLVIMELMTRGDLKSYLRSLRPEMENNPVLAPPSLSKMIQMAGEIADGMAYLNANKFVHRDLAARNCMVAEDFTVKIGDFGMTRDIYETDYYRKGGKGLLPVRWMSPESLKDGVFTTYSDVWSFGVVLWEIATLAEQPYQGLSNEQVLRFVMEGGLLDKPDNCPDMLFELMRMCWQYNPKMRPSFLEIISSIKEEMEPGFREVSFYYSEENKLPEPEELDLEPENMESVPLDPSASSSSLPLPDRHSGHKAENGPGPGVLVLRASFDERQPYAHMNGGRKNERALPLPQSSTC
Source text: as §1

KDR(h) = KDR(h) (Homo sapiens, UniProt P35968); conditions: atp_concentration=90, read-out: % of control remaining
Source text: as §1

SRPK1(h) = SRPK1(h) (Homo sapiens, UniProt Q96SB4); conditions: atp_concentration=10, read-out: % of control remaining
SRPK1(h), sequence (Q96SB4 whole entry): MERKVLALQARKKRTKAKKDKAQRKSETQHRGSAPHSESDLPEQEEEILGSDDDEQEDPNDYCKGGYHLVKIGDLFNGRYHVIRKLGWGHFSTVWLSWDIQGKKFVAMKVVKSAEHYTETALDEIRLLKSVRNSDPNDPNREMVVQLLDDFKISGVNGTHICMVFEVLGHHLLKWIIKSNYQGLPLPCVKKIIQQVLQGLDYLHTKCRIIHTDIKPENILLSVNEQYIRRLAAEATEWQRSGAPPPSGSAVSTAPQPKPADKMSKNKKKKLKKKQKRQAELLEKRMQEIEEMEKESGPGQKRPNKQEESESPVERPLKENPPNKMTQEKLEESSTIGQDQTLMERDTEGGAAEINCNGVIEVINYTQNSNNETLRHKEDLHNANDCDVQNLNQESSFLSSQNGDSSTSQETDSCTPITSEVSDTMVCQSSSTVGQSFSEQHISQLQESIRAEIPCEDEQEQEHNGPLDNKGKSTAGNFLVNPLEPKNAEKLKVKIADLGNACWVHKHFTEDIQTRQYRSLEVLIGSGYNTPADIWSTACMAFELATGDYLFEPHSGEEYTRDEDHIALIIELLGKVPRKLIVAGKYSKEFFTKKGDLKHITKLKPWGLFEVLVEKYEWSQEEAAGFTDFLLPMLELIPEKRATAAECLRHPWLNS
Source text: as §1

EGFR(h) = EGFR(h) (Homo sapiens, UniProt P00533); conditions: atp_concentration=10, read-out: % of control remaining
Source text: as §1

## Cc1nn(C)cc1-c1cc2c(NC(c3ccc4c(c3)S(=O)(=O)CCC4)C(C)C)ncnc2[nH]1 (stereo not drawn) [ASAP-0011446]
CK1γ1(h); batch_name=ASAP-0011446-002
  remaining activity at 10 µM: 99%
AMPKα1(h); batch_name=ASAP-0011446-002
  remaining activity at 10 µM: 102%
IRAK4(h); batch_name=ASAP-0011446-002
  remaining activity at 10 µM: 107%
IKKα(h); batch_name=ASAP-0011446-002
  remaining activity at 10 µM: 94%
JAK2(h); batch_name=ASAP-0011446-002
  remaining activity at 10 µM: 111%
PAK2(h); batch_name=ASAP-0011446-002
  remaining activity at 10 µM: 100%
[1]; batch_name=ASAP-0011446-002
  remaining activity at 10 µM: 101%
mTOR(h); batch_name=ASAP-0011446-002
  remaining activity at 10 µM: 96%
Rsk1(h); batch_name=ASAP-0011446-002
  remaining activity at 10 µM: 110%
MLK1(h); batch_name=ASAP-0011446-002
  remaining activity at 10 µM: 79%
IGF-1R(h); batch_name=ASAP-0011446-002
  remaining activity at 10 µM: 97%
KDR(h); batch_name=ASAP-0011446-002
  remaining activity at 10 µM: 88%
SRPK1(h); batch_name=ASAP-0011446-002
  remaining activity at 10 µM: 104%
EGFR(h); batch_name=ASAP-0011446-002
  remaining activity at 10 µM: 87%

## C[C@H](C(=O)O)[C@@H](NC(=O)c1ncnc2[nH]ccc12)c1ccc(Br)cc1 [ASAP-0014722]
CK1γ1(h); batch_name=ASAP-0014722-002
  remaining activity at 10 µM: 92%
AMPKα1(h); batch_name=ASAP-0014722-002
  remaining activity at 10 µM: 93%
IRAK4(h); batch_name=ASAP-0014722-002
  remaining activity at 10 µM: 106%
IKKα(h); batch_name=ASAP-0014722-002
  remaining activity at 10 µM: 99%
JAK2(h); batch_name=ASAP-0014722-002
  remaining activity at 10 µM: 99%
PAK2(h); batch_name=ASAP-0014722-002
  remaining activity at 10 µM: 95%
[1]; batch_name=ASAP-0014722-002
  remaining activity at 10 µM: 97%
mTOR(h); batch_name=ASAP-0014722-002
  remaining activity at 10 µM: 100%
Rsk1(h); batch_name=ASAP-0014722-002
  remaining activity at 10 µM: 88%
MLK1(h); batch_name=ASAP-0014722-002
  remaining activity at 10 µM: 86%
IGF-1R(h); batch_name=ASAP-0014722-002
  remaining activity at 10 µM: 95%
KDR(h); batch_name=ASAP-0014722-002
  remaining activity at 10 µM: 77%
SRPK1(h); batch_name=ASAP-0014722-002
  remaining activity at 10 µM: 97%
EGFR(h); batch_name=ASAP-0014722-002
  remaining activity at 10 µM: 93%

## COc1ccc([C@H](Cc2nnn[nH]2)NC(=O)c2ncnc3[nH]ccc23)cc1 [ASAP-0015381]
CK1γ1(h); batch_name=ASAP-0015381-001
  remaining activity at 10 µM: 94%
AMPKα1(h); batch_name=ASAP-0015381-001
  remaining activity at 10 µM: 97%
IRAK4(h); batch_name=ASAP-0015381-001
  remaining activity at 10 µM: 109%
IKKα(h); batch_name=ASAP-0015381-001
  remaining activity at 10 µM: 98%
JAK2(h); batch_name=ASAP-0015381-001
  remaining activity at 10 µM: 116%
PAK2(h); batch_name=ASAP-0015381-001
  remaining activity at 10 µM: 107%
[1]; batch_name=ASAP-0015381-001
  remaining activity at 10 µM: 97%
mTOR(h); batch_name=ASAP-0015381-001
  remaining activity at 10 µM: 97%
Rsk1(h); batch_name=ASAP-0015381-001
  remaining activity at 10 µM: 102%
MLK1(h); batch_name=ASAP-0015381-001
  remaining activity at 10 µM: 87%
IGF-1R(h); batch_name=ASAP-0015381-001
  remaining activity at 10 µM: 103%
KDR(h); batch_name=ASAP-0015381-001
  remaining activity at 10 µM: 97%
SRPK1(h); batch_name=ASAP-0015381-001
  remaining activity at 10 µM: 103%
EGFR(h); batch_name=ASAP-0015381-001
  remaining activity at 10 µM: 97%
